Experimental findings from patent publication US6022495A, “Photochromic benzopyrano-fused naphthopyrans” (Transitions Optical, Inc., priority 1998, dated 2000) are described below.

A short description of data set [1]: Visible lambda max of the activated form in polymer test squares (Varian Cary 3 UV-Visible spectrophotometer). As to conditions: activated (colored) form in test square of BPA 2EO DMA / poly(ethylene glycol) 600 dimethacrylate, 1.5×10^-3 molal. It is filed as physicochemical. How it is done:
(§1) Testing was done with the photochromic compounds prepared in Examples 1-11 in the following manner. A quantity of each photochromic compound calculated to yield a 1.5×10^-3 molal solution was added to a flask containing 50 grams of a monomer blend of 4 parts ethoxylated bisphenol A dimethacrylate (BPA 2EO DMA), 1 part poly(ethylene glycol) 600 dimethacrylate, and 0.033 weight percent 2,2'-azobis(2-methyl propionitrile) (AIBN). Each photochromic compound was dissolved into the monomer blend by stirring and gentle heating. After a clear solution was obtained, it was poured into a flat sheet mold having the interior dimensions of 2.2 mm×6 inches (15.24 cm)×6 inches (15.24 cm). The mold was sealed and placed in a horizontal air flow, programmable oven programmed to increase the temperature from 40° C. to 95° C. over […], hold the temperature at 95° C. for 3 hours, lower it to 60° C. over a 2 hour interval and then hold at 60° C. for 16 hours. After the mold was opened, the polymer sheet was cut using a diamond blade saw into 2 inch (5.1 centimeters) test squares.
The Δ OD/min, which represents the sensitivity of the photochromic compound's response to UV light, was measured over the first five (5) seconds of UV exposure, then expressed on a per minute basis. The saturation optical density (Δ OD@ Saturation) was taken under identical conditions as the Δ OD/min, except UV exposure was continued for 15 minutes. The lambda max (Vis) is the wavelength in nanometers (nm) in the visible spectrum at which the maximum absorption of the activated (colored) form of the photochromic compound in a test square occurs. The lambda max (Vis) wavelength was determined by testing the photochromic test square polymerizates of Part A in a Varian Cary 3 UV-Visible spectrophotometer. The Bleach Rate (T 1/2) is the time interval in seconds for the absorbance of the activated form of the photochromic compound in the test squares to reach one half the highest absorbance at room temperature (72° F., 22.20C.) after removal of the source of activating light.

The nature of data set [2]: Photochromic response of polymer test squares on an optical bench. Format: physicochemical. The settings on record: for ΔOD @ Saturation: UV exposure continued for 15 minutes; for ΔOD @ Saturation / Sensitivity ΔOD/min: 72° F. (22.2° C.); for Sensitivity ΔOD/min: first five (5) seconds of UV exposure, expressed per minute; for Bleach Rate T 1/2: time for absorbance of activated form to reach one half the highest absorbance at room temperature (72° F.) after removal of activating light. How it is done:
as §1
The photochromic test squares prepared in Part A were tested for photochromic response on an optical bench. Prior to testing on the optical bench, the photochromic test squares were exposed to 365 nanometer ultraviolet light for about 15 minutes to activate the photochromic compounds and then placed in a 76° C. oven for about 15 minutes to bleach or inactivate the photochromic compounds. The test squares were then cooled to room temperature, exposed to fluorescent room lighting for at least 2 hours and then kept covered for at least 2 hours prior to testing on an optical bench maintained at 72° F. (22.2° C.). The bench was fitted with a 150 watt Xenon arc lamp, a remote controlled shutter, a copper sulfate bath acting as a heat sink for the arc lamp, a Schott WG-320 nm cut-off filter which removes short wavelength radiation; neutral density filter(s) and a sample holder in which the square to be tested was inserted. The power output of the optical bench, i.e., the dosage of light that the sample lens would be exposed to, was calibrated with a photochromic test square used as a reference standard. […] The UV-A detector was placed into the sample holder and the light output was measured. Adjustments to the power output were made by increasing or decreasing the lamp wattage or by adding or removing neutral density filters in the light path.
A monitoring, collimated beam of light from a tungsten lamp was passed through the square at a small angle (approximately […]) normal to the square. After passing through the square, the light from the tungsten lamp was directed to a detector through Spectral Energy Corp. GM-200 monochromator set at the previously determined visible lambda max of the photochromic compound being measured. The output signals from the detector were processed by a radiometer.
Change in optical density (ΔOD) was determined by inserting a test square in the bleached state into the sample holder, adjusting the transmittance scale to 100%, opening the shutter from the Xenon lamp to provide ultraviolet radiation to change the test square from the bleached state to an activated (i.e., darkened) state, measuring the transmittance in the activated state, and calculating the change in optical density according to the formula: ΔOD=log(100/% Ta), where % Ta is the percent transmittance in the activated state and the logarithm is to the base 10.
The Δ OD/min, which represents the sensitivity of the photochromic compound's response to UV light, was measured over the first five (5) seconds of UV exposure, then expressed on a per minute basis. The saturation optical density (Δ OD@ Saturation) was taken under identical conditions as the Δ OD/min, except UV exposure was continued for 15 minutes. […]

Turning to `COc1ccc(C2(c3ccc(OC)cc3)C=Cc3c(c4c5ccccc5c(=O)oc4c4ccccc34)O2)cc1` [Compound 1A, 2,2-bis(4-methoxyphenyl)-10-oxo-2,10-dihydro[2]benzopyrano[4',3':3,4]naphtho(2,1-b)pyran], the “lambda max (Vis)” value in data set [1] is reported as 493 nanometers. For the same molecule, in data set [2], the “ΔOD @ Saturation” value is on record as 0.14, the “Sensitivity ΔOD/min” value is 0.29 ΔOD/min and the “Bleach Rate T 1/2” value was 18 s.
For `COc1ccc(C2(c3ccc(OC)cc3)C=Cc3c(c4ccccc4c4c3oc(=O)c3ccccc34)O2)cc1` [Compound 1B, 6,6-bis(4-methoxyphenyl)-10-oxo-6,10-dihydro[2]benzopyrano[3',4':3,4]naphtho(1,2-b)pyran], in that order: 537 nanometers, 0.07, 0.19 ΔOD/min and 24 s.
As for `COc1ccc(C2(c3ccc(OC)cc3)C=Cc3c4c(c5ccccc5c3O2)-c2ccccc2CO4)cc1` [Compound 2, 6,6-bis(4-methoxyphenyl)-6,10-dihydro[2]benzopyrano[3'4':3,4]naphtho(1,2-b)pyran], in data set [1] (listed as 2A), the “lambda max (Vis)” value came to 546 nanometers. The “lambda max (Vis)” value in data set [1] (listed as 2B) is on record as 432 nanometers. In addition, in data set [2] (listed as 2A), the “ΔOD @ Saturation” value is on record as 0.22, the “Sensitivity ΔOD/min” value is on record as 0.10 ΔOD/min and the “Bleach Rate T 1/2” value came to 116 s. Also, in data set [2] (listed as 2B), the “ΔOD @ Saturation” value is recorded as 0.27, the “Sensitivity ΔOD/min” value was 0.12 ΔOD/min and the “Bleach Rate T 1/2” value was 112 s.
Take `COc1ccc(C2(c3ccc(N4CCOCC4)cc3)C=Cc3c(c4c5ccccc5c(=O)oc4c4ccccc34)O2)cc1` (stereo not shown) [Compound 3A, 2-(4-methoxyphenyl)-2-(4-morpholinophenyl)-10-oxo-2,10-dihydro[2]benzopyrano[4',3':3,4]naphtho(2,1-b)pyran]: the “lambda max (Vis)” value in data set [1] worked out at 530 nanometers. Moreover, in data set [2], the “ΔOD @ Saturation” value was found to be 0.01, the “Sensitivity ΔOD/min” value was 0.04 ΔOD/min and the “Bleach Rate T 1/2” value worked out at 3 s.
The like results for `COc1ccc(C2(c3ccc(N4CCOCC4)cc3)C=Cc3c(c4ccccc4c4c3oc(=O)c3ccccc34)O2)cc1` (stereo not shown) [Compound 3B, 6-(4-methoxyphenyl)-6-(4-morpholinophenyl)-10-oxo-6,10-dihydro[2]benzopyrano[3',4':3,4]naphtho(1,2-b)pyran] were, in that order, 598 nanometers, 0.06, 0.13 ΔOD/min and 39 s.
For `COc1ccc(C2(c3ccc(N4CCOCC4)cc3)C=Cc3c4c(c5ccccc5c3O2)-c2ccccc2C(C)(C)O4)cc1` (stereo not shown) [Compound 4, 10,10-dimethyl-6-(4-methoxyphenyl)-6-(4-morpholinophenyl)-6,10-dihydro[2]benzopyrano[3',4':3,4]naphtho(1,2-b)pyran], in data set [1] (listed as 4A), the “lambda max (Vis)” value turned out to be 598 nanometers. In addition, in data set [1] (listed as 4B), the “lambda max (Vis)” value was determined as 472 nanometers. In data set [2] (listed as 4A), the “ΔOD @ Saturation” value came to 0.23, the “Sensitivity ΔOD/min” value was 0.18 ΔOD/min and the “Bleach Rate T 1/2” value was found to be 68 s. Also, in data set [2] (listed as 4B), the “ΔOD @ Saturation” value was found to be 0.19, the “Sensitivity ΔOD/min” value was 0.12 ΔOD/min and the “Bleach Rate T 1/2” value came out at 61 s.
For the molecule `O=c1oc2c3ccccc3c3c(c2c2ccccc12)OC(c1ccccc1)(c1ccc(N2CCOCC2)cc1)C=C3` (stereo not shown) [Compound 5A, 2-(4-morpholinophenyl)-2-phenyl-10-oxo-2,10-dihydro[2]benzopyrano[4',3':3,4]naphtho(2,1-b)pyran], the “lambda max (Vis)” value in data set [1] came out at 570 nanometers. Further, in data set [2], the “ΔOD @ Saturation” value was 0.12, the “Sensitivity ΔOD/min” value was 0.21 ΔOD/min and the “Bleach Rate T 1/2” value was 37 s.
As to `COc1ccc(C2(c3ccc(OC)cc3)C=Cc3c(c4c5cc(OC)c(OC)cc5c(=O)oc4c4ccccc34)O2)cc1` [Compound 6A, 2,2-bis(4-methoxyphenyl)-12,13-dimethoxy-10-oxo-2,10-dihydro[2]benzopyrano[4',3':3,4]naphtho(2,1-b)pyran], the “lambda max (Vis)” value in data set [1] is 477 nanometers. Also, in data set [2], the “ΔOD @ Saturation” value came to 0.13, the “Sensitivity ΔOD/min” value was 0.19 ΔOD/min and the “Bleach Rate T 1/2” value is 28 s.
The like results for `COc1ccc(C2(c3ccc(OC)cc3)C=Cc3c(c4ccccc4c4c3oc(=O)c3cc(OC)c(OC)cc34)O2)cc1` [Compound 6B, 6,6-bis(4-methoxyphenyl)-12,13-dimethoxy-10-oxo-6,10-dihydro[2]benzopyrano[3',4':3,4]naphtho(1,2-b)pyran] were, in that order, 569 nanometers, 0.10, 0.22 ΔOD/min and 32 s.
For `COc1ccc(C2(c3ccccc3)C=Cc3c(c4ccccc4c4c3oc(=O)c3cc(OC)c(OC)cc34)O2)cc1` (stereo not shown) [Compound 7A, 6-(4-methoxyphenyl)-6-phenyl-12,13-dimethoxy-10-oxo-6,10-dihydro[2]benzopyrano[3',4':3,4]naphtho(1,2-b)pyran], in that order: 569 nanometers, 0.22, 0.27 ΔOD/min and 54 s.
For `COc1ccc(C2(c3ccccc3)C=Cc3c(c4c5cc(OC)c(OC)cc5c(=O)oc4c4ccccc34)O2)cc1` (stereo not shown) [Compound 7B, 2-(4-methoxphenyl)-2-phenyl-12,13-dimethoxy-10-oxo-2,10-dihydro[2]benzopyrano[4',3':3,4]naphtho(2,1-b)pyran], in that order: 464 nanometers, 0.29, 0.31 ΔOD/min and 47 s.
